Earlier results on 1 molecule are cited in patent US11273125B2, “Preparation of desiccated liposomes for use in compressible delivery systems” (SMARTEK INTERNATIONAL LLC, priority 2017, dated 2022).

For this data set the following is noted: poor bioavailability of the unformulated compound; route and species not given.

`COc1ccc2c(=O)cc(-c3ccccc3)oc2c1` [7-methoxyflavone]: the bioavailability result was “approximately 5%”.
